Results reported in patent US9358217B2, “Methods for reducing triglyceride, total cholesterol and low density lipoprotein blood levels” (MediciNova, Inc., priority 2013, dated 2016).

Assays:
Assay type in all cases: in vivo
blood levels of HDL = experiment: Blood levels of HDL upon administration of MN-001; settings: human subjects
[1] = tested on: triglyceride blood levels; experiment: Triglyceride blood levels in human subjects upon MN-001 administration
Procedure: Human subjects were administered various daily amounts of MN-001 and placebo and their triglyceride blood levels (mg/deciliter or dl) measured at various time points. […] As to the “week 14” time point in Table 1-D, it provides triglyceride levels of follow-up patients after MN-001 administration was stopped at 12 weeks.

LDL blood levels = experiment: Total LDL blood levels in human subjects upon MN-001 administration
Procedure: Human subjects were administered various daily amounts of MN-001 and placebo and their total LDL blood levels (mg/dl) measured at various time points.

[2] = tested on: total cholesterol blood levels; experiment: Total cholesterol blood levels in human subjects upon MN-001 administration
Procedure: Human subjects were administered various daily amounts of MN-001 and placebo and their total cholesterol blood levels (mg/dl) measured at various time points.

[3] = human subjects, various daily amounts, with certain exceptions

## CCCc1c(SCCCOc2ccc(C(C)=O)c(OCCCC(=O)O)c2CCC)ccc(C(C)=O)c1O [MN-001]
Blood levels of HDL
  effect on blood levels of HDL: not altered substantially, if at all
[1]; Table 1-A Asthma Subjects, 500 mg tid (N = 36), Screening
  mean triglyceride blood level: 109.5 mg/dL
[1]; Table 1-A Asthma Subjects, 500 mg tid (N = 36), Week 4
  mean triglyceride blood level: 91.6 mg/dL
[1]; Table 1-A Asthma Subjects, 750 mg bid (N = 36), Screening
  mean triglyceride blood level: 125.5 mg/dL
[1]; Table 1-A Asthma Subjects, 750 mg bid (N = 36), Week 4
  mean triglyceride blood level: 98.5 mg/dL
[1]; Table 1-A Asthma Subjects, 750 mg qd (N = 36), Screening
  mean triglyceride blood level: 112.2 mg/dL
[1]; Table 1-A Asthma Subjects, 750 mg qd (N = 36), Week 4
  mean triglyceride blood level: 117.2 mg/dL
[1]; Table 1-B Interstitial Cystitis Subjects, 500 mg bid (N = 106), Baseline
  mean triglyceride blood level: 135.7 mg/dL
[1]; Table 1-B Interstitial Cystitis Subjects, 500 mg bid (N = 106), Week 4
  mean triglyceride blood level: 106.7 mg/dL
[1]; Table 1-B Interstitial Cystitis Subjects, 500 mg bid (N = 106), Week 8
  mean triglyceride blood level: 110.7 mg/dL
[1]; Table 1-B Interstitial Cystitis Subjects, 500 mg qd (N = 94), Baseline
  mean triglyceride blood level: 136.1 mg/dL
[1]; Table 1-B Interstitial Cystitis Subjects, 500 mg qd (N = 94), Week 4
  mean triglyceride blood level: 109.5 mg/dL
[1]; Table 1-B Interstitial Cystitis Subjects, 500 mg qd (N = 94), Week 8
  mean triglyceride blood level: 124.7 mg/dL
[1]; Table 1-C Healthy Subjects, 1500 mg/day × 10 days (N = 11), Day 11
  mean triglyceride blood level: 87.5 mg/dL
[1]; Table 1-C Healthy Subjects, 1500 mg/day × 10 days (N = 11), Screening
  mean triglyceride blood level: 145.4 mg/dL
[1]; Table 1-D Asthma Subjects, 500 mg tid (N = 54), Baseline
  mean triglyceride blood level: 159.4 mg/dL
[1]; Table 1-D Asthma Subjects, 500 mg tid (N = 54), Week 4
  mean triglyceride blood level: 112.5 mg/dL
[1]; Table 1-D Asthma Subjects, 500 mg tid (N = 54), Week 8
  mean triglyceride blood level: 132.4 mg/dL
[1]; Table 1-D Asthma Subjects, 500 mg tid (N = 54), Week 12
  mean triglyceride blood level: 147.7 mg/dL
[1]; Table 1-D Asthma Subjects, 500 mg tid (N = 54), Week 14 (follow-up, administration stopped at 12 weeks)
  mean triglyceride blood level: 134.1 mg/dL
[1]; Table 1-D Asthma Subjects, 750 mg bid (N = 53), Baseline
  mean triglyceride blood level: 117.0 mg/dL
[1]; Table 1-D Asthma Subjects, 750 mg bid (N = 53), Week 4
  mean triglyceride blood level: 94.1 mg/dL
[1]; Table 1-D Asthma Subjects, 750 mg bid (N = 53), Week 8
  mean triglyceride blood level: 101.4 mg/dL
[1]; Table 1-D Asthma Subjects, 750 mg bid (N = 53), Week 12
  mean triglyceride blood level: 114.0 mg/dL
[1]; Table 1-D Asthma Subjects, 750 mg bid (N = 53), Week 14 (follow-up, administration stopped at 12 weeks)
  mean triglyceride blood level: 104.6 mg/dL
[1]; Table 1-D, week 14, after administration was stopped at 12 weeks
  triglyceride levels during follow-up period compared with a control group: continued their downward trend
[1]; [3]
  effect on mean triglyceride blood levels compared to control subjects (placebo): substantial lowering
LDL blood levels; Table 3-A Asthma Subjects, 500 mg tid (N = 36), Screening
  mean LDL blood level: 113.8 mg/dL
LDL blood levels; Table 3-A Asthma Subjects, 500 mg tid (N = 36), Week 4
  mean LDL blood level: 105.4 mg/dL
LDL blood levels; Table 3-A Asthma Subjects, 750 mg bid (N = 36), Screening
  mean LDL blood level: 100.3 mg/dL
LDL blood levels; Table 3-A Asthma Subjects, 750 mg bid (N = 36), Week 4
  mean LDL blood level: 104.7 mg/dL
LDL blood levels; Table 3-A Asthma Subjects, 750 mg qd (N = 36), Screening
  mean LDL blood level: 115.7 mg/dL
LDL blood levels; Table 3-A Asthma Subjects, 750 mg qd (N = 36), Week 4
  mean LDL blood level: 106.9 mg/dL
LDL blood levels; Table 3-B Interstitial Cystitis Subjects, 500 mg bid (N = 106), Baseline
  mean LDL blood level: 62.6 mg/dL
LDL blood levels; Table 3-B Interstitial Cystitis Subjects, 500 mg bid (N = 106), Week 4
  mean LDL blood level: 54.5 mg/dL
LDL blood levels; Table 3-B Interstitial Cystitis Subjects, 500 mg bid (N = 106), Week 8
  mean LDL blood level: 52.2 mg/dL
LDL blood levels; Table 3-B Interstitial Cystitis Subjects, 500 mg qd (N = 94), Baseline
  mean LDL blood level: 65.8 mg/dL
LDL blood levels; Table 3-B Interstitial Cystitis Subjects, 500 mg qd (N = 94), Week 4
  mean LDL blood level: 60.1 mg/dL
LDL blood levels; Table 3-B Interstitial Cystitis Subjects, 500 mg qd (N = 94), Week 8
  mean LDL blood level: 55.5 mg/dL
LDL blood levels; Table 3-C Healthy Subjects, 1500 mg/day × 10 days (N = 11), Day 11
  mean LDL blood level: 103.0 mg/dL
LDL blood levels; Table 3-C Healthy Subjects, 1500 mg/day × 10 days (N = 11), Screening
  mean LDL blood level: 99.1 mg/dL
LDL blood levels; Table 3-D Asthma Subjects, 500 mg tid (N = 54), Baseline
  mean LDL blood level: 100.2 mg/dL
LDL blood levels; Table 3-D Asthma Subjects, 500 mg tid (N = 54), Week 4
  mean LDL blood level: 99.5 mg/dL
LDL blood levels; Table 3-D Asthma Subjects, 500 mg tid (N = 54), Week 8
  mean LDL blood level: 99.1 mg/dL
LDL blood levels; Table 3-D Asthma Subjects, 500 mg tid (N = 54), Week 12
  mean LDL blood level: 92.5 mg/dL
LDL blood levels; Table 3-D Asthma Subjects, 500 mg tid (N = 54), Week 14 (follow-up, administration stopped at 12 weeks)
  mean LDL blood level: 102.6 mg/dL
LDL blood levels; Table 3-D Asthma Subjects, 750 mg bid (N = 53), Baseline
  mean LDL blood level: 106.3 mg/dL
LDL blood levels; Table 3-D Asthma Subjects, 750 mg bid (N = 53), Week 4
  mean LDL blood level: 102.3 mg/dL
LDL blood levels; Table 3-D Asthma Subjects, 750 mg bid (N = 53), Week 8
  mean LDL blood level: 106.6 mg/dL
LDL blood levels; Table 3-D Asthma Subjects, 750 mg bid (N = 53), Week 12
  mean LDL blood level: 110.9 mg/dL
LDL blood levels; Table 3-D Asthma Subjects, 750 mg bid (N = 53), Week 14 (follow-up, administration stopped at 12 weeks)
  mean LDL blood level: 103.6 mg/dL
LDL blood levels; [3]
  effect on mean LDL blood levels compared to control subjects (placebo): substantial lowering
[2]; Table 2-A Asthma Subjects, 500 mg tid (N = 36), Screening
  mean total cholesterol blood level: 193.5 mg/dL
[2]; Table 2-A Asthma Subjects, 500 mg tid (N = 36), Week 4
  mean total cholesterol blood level: 183.1 mg/dL
[2]; Table 2-A Asthma Subjects, 750 mg bid (N = 36), Screening
  mean total cholesterol blood level: 180.5 mg/dL
[2]; Table 2-A Asthma Subjects, 750 mg bid (N = 36), Week 4
  mean total cholesterol blood level: 181.6 mg/dL
[2]; Table 2-A Asthma Subjects, 750 mg qd (N = 36), Screening
  mean total cholesterol blood level: 191.5 mg/dL
[2]; Table 2-A Asthma Subjects, 750 mg qd (N = 36), Week 4
  mean total cholesterol blood level: 180.6 mg/dL
[2]; Table 2-B Interstitial Cystitis Subjects, 500 mg bid (N = 106), Baseline
  mean total cholesterol blood level: 174.5 mg/dL
[2]; Table 2-B Interstitial Cystitis Subjects, 500 mg bid (N = 106), Week 4
  mean total cholesterol blood level: 169.8 mg/dL
[2]; Table 2-B Interstitial Cystitis Subjects, 500 mg bid (N = 106), Week 8
  mean total cholesterol blood level: 168.7 mg/dL
[2]; Table 2-B Interstitial Cystitis Subjects, 500 mg qd (N = 94), Baseline
  mean total cholesterol blood level: 173.8 mg/dL
[2]; Table 2-B Interstitial Cystitis Subjects, 500 mg qd (N = 94), Week 4
  mean total cholesterol blood level: 171.5 mg/dL
[2]; Table 2-B Interstitial Cystitis Subjects, 500 mg qd (N = 94), Week 8
  mean total cholesterol blood level: 170.5 mg/dL
[2]; Table 2-C Healthy Subjects, 1500 mg/day × 10 days (N = 11), Day 11
  mean total cholesterol blood level: 167.8 mg/dL
[2]; Table 2-C Healthy Subjects, 1500 mg/day × 10 days (N = 11), Screening
  mean total cholesterol blood level: 176.9 mg/dL
[2]; Table 2-D Asthma Subjects, 500 mg tid (N = 54), Baseline
  mean total cholesterol blood level: 182.5 mg/dL
[2]; Table 2-D Asthma Subjects, 500 mg tid (N = 54), Week 4
  mean total cholesterol blood level: 179.3 mg/dL
[2]; Table 2-D Asthma Subjects, 500 mg tid (N = 54), Week 8
  mean total cholesterol blood level: 176.9 mg/dL
[2]; Table 2-D Asthma Subjects, 500 mg tid (N = 54), Week 12
  mean total cholesterol blood level: 169.6 mg/dL
[2]; Table 2-D Asthma Subjects, 500 mg tid (N = 54), Week 14 (follow-up, administration stopped at 12 weeks)
  mean total cholesterol blood level: 182.8 mg/dL
[2]; Table 2-D Asthma Subjects, 750 mg bid (N = 53), Baseline
  mean total cholesterol blood level: 185.4 mg/dL
[2]; Table 2-D Asthma Subjects, 750 mg bid (N = 53), Week 4
  mean total cholesterol blood level: 181.6 mg/dL
[2]; Table 2-D Asthma Subjects, 750 mg bid (N = 53), Week 8
  mean total cholesterol blood level: 187.3 mg/dL
[2]; Table 2-D Asthma Subjects, 750 mg bid (N = 53), Week 12
  mean total cholesterol blood level: 192.4 mg/dL
[2]; Table 2-D Asthma Subjects, 750 mg bid (N = 53), Week 14 (follow-up, administration stopped at 12 weeks)
  mean total cholesterol blood level: 182.6 mg/dL
[2]; [3]
  effect on mean total cholesterol blood levels compared to control subjects (placebo): substantial lowering
